Assay results reported in patent publication US20080200526A1, “Composition for the Prevention and Treatment of Allergic Inflammatory Disease” (priority 2004, published 2008).

Assays:
[1] = Change in body weight gain, mouse model of ovalbumin-induced asthma; type: in vivo; details: mean ± SD, in g (unit assumed)
Procedure: (§1) The benzamidine compound of Chemical Formula 1 was assayed for therapeutic effect on allergic inflammation in mouse models of ovalbumin-induced asthma. Starting at the sensitization with ovalbumin, the administration of the benzamidine compound was for 18 consecutive days. The experimental animals were re-exposed to ovalbumin 15 days after the sensitization and then sacrificed 3 days after the re-exposure. Changes in lung weight, cellular components of peripheral blood and bronchoalveolar lavage fluid, and lung histopathology were observed.
(§2) A total of 20 female C57BL/6 mice (6-week-old, BioGenomics, Korea) was adapted to a laboratory environment for 6 days before being used in earnest experiments. While being housed at a density of five in a plastic cage, the experimental animals were bred in a breeding room with controlled temperature (20 to 25° C.) and humidity (30 to 35%). Under light-dark cycles of 12 hours, mice were allowed to have free access to feedstuff and tap water. While asthma was induced in 15 mice by ovalbumin, 5 mice were used as a non-treated group.
(§3) 100 mg and 200 mg of N-hydroxy-4-{5-[4-(5-isopropyl-2-methyl-1,3-thiazol-4-yl)phenoxy]pentoxy}-benzamidine were completely dissolved in 5 ml of sterilized distilled water. The benzamidine compound in the solutions was orally administered at doses of 100 mg and 200 mg per kg of body weight once a day from the day of the sensitization with ovalbumin. The control group was administered with equal volumes of sterilized distilled water in the same manner.
(§4) A solution of 200 μg of ovalbumin (Grade V; Sigma, St. Louis, Mo., USA) and 180 mg of aluminum hydroxide (Al(OH)3, dried powder gel; Aldrich, Milwaukee, USA) in 4 ml of physiological saline was allowed to stand at 4° C. overnight and was administered to the experimental animals (200 μl, abdominal injection) for sensitization. As for the non-treated group, a solution of only aluminum hydroxide in saline was injected. 15 days after sensitization, a 1.5% ovalbumin solution was sprayed in air using a nebulizer, followed by exposing the experimental animals to the spray for 10 min to induce asthma therein. The non-treated group was exposed only to saline in the same manner. All the experimental animals were sacrificed 3 days after the exposure.
All the experimental animals were measured for body weight 1, 7, 14, 16 and 17 days after administration. In order to reduce difference among individuals due to feedstuff intake, all experimental animals were starved for 18 hours or more on the beginning day of the administration and on the sacrificing day before weight measurement. To minimize the difference of change in body weight of individual animals, body weight gains during time periods of the sensitization, the asthma induction after exposure and the whole experiment were calculated.

[2] = test system: mouse models of ovalbumin-induced asthma; assay: Lung weight, mouse model of ovalbumin-induced asthma; type: in vivo; details: 18 days, mean ± SD; for Lung Relative Wt.: percentage of body weight
Procedure: as §1, §2, §3, §4
On the final day of experiment, the lungs were separated from adjacent organs. The removed lungs were weighed in grams. To minimize errors due to the difference in body weight among individual animals, the relative weight of the lungs was calculated as a percentage of body weight using the following mathematic formula 1.

[3] = test system: mouse models of ovalbumin-induced asthma; assay: Total count of leukocytes in blood and fractional calculation of leukocytes; type: in vivo; details: 18 days; for Total leukocytes in blood: mean ± SD; for Basophils in blood / Eosinophils in blood / Lymphocytes in blood / Monocytes in blood / Neutrophils in blood: portion per 200 leukocytes
Procedure: as §1, §2, §3, §4
On the final day of experiment, all the experimental animals were etherized and underwent laparotomy to expose the abdominal vena cava, from which 1 ml of blood was then taken. Using a hemocytometer, a blood sample was measured for total leukocyte counts in a ×10^3/1 mm^3 unit. Immediately after blood collection, the blood sample was smeared on slide glasses, fixed with methanol, and stained with Giemsa. And then, lymphocytes, eosinophils, neutrophils, monocytes, and basophils were calculated for their respective portions per 200 leukocytes and are represented as percentages in Table 3, below.

[4] = test system: mouse models of ovalbumin-induced asthma; assay: Fractional count of cellular components of bronchoalveolar lavage fluid; type: in vivo; details: 18 days, mean ± SD
Procedure: as §1, §2, §3, §4
On the final day of experiment, secretions present in bronchi and alveola were examined for cytological constitution. To this end, after being etherized, the experimental animals were operated to open the cervical region and the thorax. The jugular vein was allowed to bleed, followed by endotracheal intubation. 3 ml of phosphate buffered saline was injected twice through the tube and the thorax was massaged for 30 sec to obtain cell suspension from the lungs. The cell suspension was centrifuged at 3000 rpm for 30 min and resuspended in DPBS (Gibco BRL, NY, USA). After the cell suspension was smeared on a slide glass, the cells were stained with Giemsa. A total count of the whole cells present in the smear and fractional counts of neutrophils, eosinophils, basophils, macrophages, and epithelioid cells were measured and are given in Table 4, below.

[5] = test system: mouse models of ovalbumin-induced asthma; assay: Lung histopathological observation and histomorphology; type: in vivo; details: for Alveolar Area (proportion of alveolar lumen in lung tissue) / Counts of goblet Cells Brochiole / Counts of goblet Cells Bronchus / Wall Thick. Brochiole / Wall Thick. Bronchus: 18 days, mean ± SD
Procedure: as §1, §2, §3, §4
The lungs removed after asthma induction were fixed in 10% neutral formalin and embedded in paraffin. The paraffin-embedded tissue was sliced at a thickness of 3 to 4 μm, stained with hematoxylin-eosin or Masson's trichrome and observed through an optical microscope.
From the lung tissue specimen prepared above, alveolar areas (proportion of alveolar lumen in lung tissue), populations of the goblet cells present in the bronchus and the bronchiole, and wall thicknesses of the bronchus and the bronchiole were examined using an analysis Image processing system (SIS Germany). The alveolar areas are represented as percentages, the populations of the goblets cells in the bronchus and bronchiole as counts per 1,000 cells, and the wall thickness of the bronchus and bronchiole in μm in Table 5.

asthma = details: clinical test, Lilly; Evans D J, Thorax 1996; cited from earlier work
bronchial asthma = details: Sakurada T. et al., Eur J Pharmacol 1999, cited from earlier work

Cc1nc(-c2ccc(OCCCCCOc3ccc(C(=N)NO)cc3)cc2)c(C(C)C)s1 [Cpd. of Formula 1, N-hydroxy-4-{5-[4-(5-isopropyl-2-methyl-1,3-thiazol-4-yl)phenoxy]pentoxy}-benzamidine]
Body weight gain, Asthma induction period after exposure ([1]; 100 mg/kg orally once a day): 0.34 ± 0.34 | Body weight gain, Over whole experimental period ([1]; 100 mg/kg orally once a day): 2.68 ± 0.52 | Body weight gain, Sensitization period ([1]; 100 mg/kg orally once a day): 3.50 ± 0.51 | Body weight gain, Asthma induction period after exposure ([1]; 200 mg/kg orally once a day): 0.36 ± 0.59 | Body weight gain, Over whole experimental period ([1]; 200 mg/kg orally once a day): 2.90 ± 0.40 | Body weight gain, Sensitization period ([1]; 200 mg/kg orally once a day): 3.08 ± 0.71 | Lung Absolute Wt. ([2]; 100 mg/kg orally once a day): 0.128 ± 0.007 ## g | Lung Relative Wt. ([2]; 100 mg/kg orally once a day): 0.697 ± 0.030 ## % | Lung Absolute Wt. ([2]; 200 mg/kg orally once a day): 0.125 ± 0.008 # g | Lung Relative Wt. ([2]; 200 mg/kg orally once a day): 0.682 ± 0.030 ## % | Total leukocytes in blood ([3]; 100 mg/kg orally once a day): 10.68 ± 1.76 ## ×10^3/1 mm^3 | Basophils in blood ([3]; 100 mg/kg orally once a day): 0.10 ± 0.20% | Eosinophils in blood ([3]; 100 mg/kg orally once a day): 49.60 ± 15.79 % | Lymphocytes in blood ([3]; 100 mg/kg orally once a day): 41.70 ± 12.90 % | Monocytes in blood ([3]; 100 mg/kg orally once a day): 3.70 ± 1.60% | Neutrophils in blood ([3]; 100 mg/kg orally once a day): 4.90 ± 2.90 % | Total leukocytes in blood ([3]; 200 mg/kg orally once a day): 10.44 ± 1.81 ## ×10^3/1 mm^3 | Basophils in blood ([3]; 200 mg/kg orally once a day): 0.00 ± 0.00% | Eosinophils in blood ([3]; 200 mg/kg orally once a day): 36.90 ± 8.33 # % | Lymphocytes in blood ([3]; 200 mg/kg orally once a day): 53.80 ± 5.50 # % | Monocytes in blood ([3]; 200 mg/kg orally once a day): 4.40 ± 1.70 % | Neutrophils in blood ([3]; 200 mg/kg orally once a day): 5.20 ± 2.00 % | Basophils in bronchoalveolar lavage fluid ([4]; 100 mg/kg orally once a day): 0.50 ± 0.50% | Epithelioids in bronchoalveolar lavage fluid ([4]; 100 mg/kg orally once a day): 21.00 ± 14.77% | Lymphocytes in bronchoalveolar lavage fluid ([4]; 100 mg/kg orally once a day): 56.90 ± 15.04% | Monocytes in bronchoalveolar lavage fluid ([4]; 100 mg/kg orally once a day): 3.10 ± 3.73% | Neutrophils in bronchoalveolar lavage fluid ([4]; 100 mg/kg orally once a day): 17.50 ± 8.06 % | eosinophils in bronchoalveolar lavage fluid ([4]; 100 mg/kg orally once a day): 4.30 ± 1.44 % | Basophils in bronchoalveolar lavage fluid ([4]; 200 mg/kg orally once a day): 0.10 ± 0.22 % | Epithelioids in bronchoalveolar lavage fluid ([4]; 200 mg/kg orally once a day): 15.50 ± 9.74% | Lymphocytes in bronchoalveolar lavage fluid ([4]; 200 mg/kg orally once a day): 56.80 ± 22.52% | Monocytes in bronchoalveolar lavage fluid ([4]; 200 mg/kg orally once a day): 3.50 ± 2.57% | Neutrophils in bronchoalveolar lavage fluid ([4]; 200 mg/kg orally once a day): 13.90 ± 9.85% | eosinophils in bronchoalveolar lavage fluid ([4]; 200 mg/kg orally once a day): 3.60 ± 2.88 % | Alveolar Area (proportion of alveolar lumen in lung tissue) ([5]; 100 mg/kg orally once a day): 55.53 ± 4.26 # percentages | Counts of goblet Cells Brochiole ([5]; 100 mg/kg orally once a day): 53.80 ± 11.73 ## counts per 1,000 cells | Counts of goblet Cells Bronchus ([5]; 100 mg/kg orally once a day): 317.60 ± 75.46 # counts per 1,000 cells | Wall Thick. Brochiole ([5]; 100 mg/kg orally once a day): 27.73 ± 4.68 ## μm | Wall Thick. Bronchus ([5]; 100 mg/kg orally once a day): 60.92 ± 8.53 # μm | Alveolar Area (proportion of alveolar lumen in lung tissue) ([5]; 200 mg/kg orally once a day): 61.62 ± 6.93 # percentages | Counts of goblet Cells Brochiole ([5]; 200 mg/kg orally once a day): 42.80 ± 10.69 # counts per 1,000 cells | Counts of goblet Cells Bronchus ([5]; 200 mg/kg orally once a day): 256.80 ± 71.58 # counts per 1,000 cells | Wall Thick. Brochiole ([5]; 200 mg/kg orally once a day): 24.79 ± 3.03 # μm | Wall Thick. Bronchus ([5]; 200 mg/kg orally once a day): 40.69 ± 5.37 # μm | Inflammatory cell populations in tissues around the primary bronchiole and alveola and around bronchial epithelia (FIG. 1) ([5]; compared to the control group, 100 and 200 mg/kg, optical microscope): reduction of the inflammatory cell population in the tissues in a dose-dependent pattern

CCCc1c(OCCCOc2cc(O)c(-c3ccc(F)cc3)cc2CC)cccc1Oc1ccccc1C(=O)O [LY293111]
Effect in treating asthma (asthma): ineffective in treating asthma

COc1ccc(/C=C/CCCCOc2cccc(OCCCCC(=O)O)c2CCC(=O)O)cc1 [ONO-4057]
Effect on bronchial asthma, in combination (bronchial asthma; in combination with the cysteinyl leukotriene receptor antagonist Zafirlukast): medicinal effect on bronchial asthma | Effect on bronchial asthma, used alone (bronchial asthma; used alone): ineffective for the treatment thereof
